Values joined by “and” are separate entries in the source; they are usually repeats but may differ in a detail not shown here. Identical values can stand only once.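 Where inhibition never reached the appropriate level, the endpoint shown equals the highest concentration tested. Otherwise, values were interpolated linearly from a five-concentration, 48-hour dose response in 96-well plates. GI50 is the concentration that inhibits growth by half. The concentration for full growth arrest is given as TGI.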
Tests used:
Assay in all cases: NCI anticancer screen, dose series, 48 h
[1] = test system: 786-0 renal
[2] = test system: A498 renal
[3] = test system: A549 NSCLC
[4] = test system: ACHN renal
[5] = test system: BT-549 breast
[6] = test system: CAKI-1 renal
[7] = test system: CCRF-CEM leukemia
[8] = test system: COLO 205 colon
[9] = test system: DU-145 prostate
[10] = test system: EKVX NSCLC
[11] = test system: HCC-2998 colon
[12] = test system: HCT-116 colon
[13] = test system: HCT-15 colon
[14] = test system: HOP-62 NSCLC
[15] = test system: HOP-92 NSCLC
[16] = test system: HS 578T breast
[17] = test system: HT29 colon
[18] = test system: IGROV1 ovarian
[19] = test system: K-562 leukemia
[20] = test system: KM12 colon
[21] = test system: LOX IMVI melanoma
[22] = test system: M14 melanoma
[23] = test system: MALME-3M melanoma
[24] = test system: MCF7 breast
[25] = test system: MDA-MB-231 breast
[26] = test system: MDA-MB-435
[27] = test system: MDA-N
[28] = test system: MOLT-4 leukemia
[29] = test system: NCI-H226 lung
[30] = test system: NCI-H23 lung
[31] = test system: NCI-H460 lung
[32] = test system: NCI-H522 lung
[33] = test system: NCI/ADR-RES ovarian
[34] = test system: OVCAR-3 ovarian
[35] = test system: OVCAR-4 ovarian
[36] = test system: OVCAR-5 ovarian
[37] = test system: OVCAR-8 ovarian
[38] = test system: PC-3 prostate
[39] = test system: RPMI-8226 leukemia
[40] = test system: RXF 393 renal
[41] = test system: SF-268 CNS
[42] = test system: SF-295 CNS
[43] = test system: SF-539 CNS
[44] = test system: SK-MEL-2 melanoma
[45] = test system: SK-MEL-28 melanoma
[46] = test system: SK-MEL-5 melanoma
[47] = test system: SK-OV-3 ovarian
[48] = test system: SN12C renal
[49] = test system: SNB-19 CNS
[50] = test system: SNB-75 CNS
[51] = test system: SR leukemia
[52] = test system: SW-620 colon
[53] = test system: T-47D breast
[54] = test system: TK-10 renal
[55] = test system: U251 CNS
[56] = test system: UACC-257 melanoma
[57] = test system: UACC-62 melanoma
[58] = test system: UO-31 renal

## O=Cc1ccc(-c2cc(C=O)c(-c3cccs3)[nH]2)s1
[1]
  GI50: > 100 µM
  TGI: 75 µM and > 100 µM
[2]
  TGI: 5.73 µM and 4.49 µM
[3]
  GI50: 29.8 µM
  TGI: 75 µM and > 100 µM
[4]
  GI50: 78.6 µM
  TGI: 75 µM and > 100 µM
[5]
  GI50: > 100 µM
  TGI: 75 µM and > 100 µM
[6]
  GI50: 53.5 µM
  TGI: 58.3 µM and > 100 µM
[7]
  GI50: > 100 µM
  TGI: 75 µM and > 100 µM
[8]
  TGI: 75 µM and 88.6 µM
[9]
  TGI: 75 µM and > 100 µM
[10]
  GI50: 47.8 µM
  TGI: 75 µM and > 100 µM
[11]
  GI50: 20.1 µM
  TGI: 56.6 µM and > 100 µM
[12]
  GI50: 64.2 µM
  TGI: 75 µM and > 100 µM
[13]
  GI50: 74.8 µM
  TGI: 75 µM and > 100 µM
[14]
  GI50: > 100 µM
  TGI: 72.5 µM and > 100 µM
[15]
  GI50: > 100 µM
  TGI: 75 µM and > 100 µM
[16]
  GI50: > 100 µM
  TGI: 75 µM and > 100 µM
[17]
  TGI: 75 µM
[18]
  GI50: 30.8 µM
  TGI: 75 µM and > 100 µM
[19]
  GI50: 77.5 µM
  TGI: 75 µM and > 100 µM
[20]
  GI50: 50.8 µM
  TGI: 75 µM and > 100 µM
[21]
  GI50: > 100 µM
  TGI: 75 µM and > 100 µM
[22]
  GI50: 27.5 µM
  TGI: 75 µM and > 100 µM
[23]
  GI50: > 100 µM
  TGI: 75 µM and > 100 µM
[24]
  GI50: 7.36 µM
  TGI: 75 µM and > 100 µM
[25]
  GI50: > 100 µM
  TGI: 75 µM and > 100 µM
[26]
  GI50: 43.7 µM
  TGI: 75 µM and > 100 µM
[27]
  GI50: 33.7 µM
  TGI: 75 µM and > 100 µM
[28]
  GI50: 81 µM
  TGI: 75 µM and > 100 µM
[29]
  TGI: 40 µM
[30]
  GI50: > 100 µM
  TGI: 75 µM and > 100 µM
[31]
  GI50: 48.2 µM
  TGI: 75 µM and > 100 µM
[32]
  GI50: 19.6 µM
  TGI: 19.9 µM and 57.4 µM
[33]
  GI50: 68.3 µM
  TGI: 75 µM and > 100 µM
[34]
  GI50: 52 µM
  TGI: 53.7 µM and > 100 µM
[35]
  GI50: 12 µM
  TGI: 75 µM and > 100 µM
[36]
  GI50: 66.4 µM
  TGI: > 100 µM
[37]
  GI50: > 100 µM
  TGI: 75 µM and > 100 µM
[38]
  GI50: > 100 µM
  TGI: 75 µM and > 100 µM
[39]
  GI50: 79.1 µM
  TGI: 75 µM and > 100 µM
[40]
  GI50: 23.3 µM
  TGI: 75 µM and > 100 µM
[41]
  GI50: > 100 µM
  TGI: > 100 µM
[42]
  GI50: 36.9 µM
  TGI: 75 µM and > 100 µM
[43]
  TGI: 75 µM
[44]
  GI50: > 100 µM
  TGI: 75 µM and > 100 µM
[45]
  GI50: > 100 µM
  TGI: 75 µM and > 100 µM
[46]
  GI50: 40.5 µM
  TGI: 75 µM and > 100 µM
[47]
  GI50: > 100 µM
  TGI: 75 µM and > 100 µM
[48]
  TGI: 75 µM and > 100 µM
[49]
  GI50: > 100 µM
  TGI: 75 µM and > 100 µM
[50]
  GI50: 29.5 µM
  TGI: 52.2 µM and > 100 µM
[51]
  GI50: 31.6 µM
  TGI: 72.7 µM and > 100 µM
[52]
  GI50: > 100 µM
  TGI: > 100 µM
[53]
  GI50: 18.2 µM
  TGI: 49.6 µM and > 100 µM
[54]
  GI50: 85 µM
  TGI: 75 µM and > 100 µM
[55]
  GI50: > 100 µM
  TGI: 62.9 µM and > 100 µM
[56]
  GI50: > 100 µM
  TGI: 75 µM and > 100 µM
[57]
  GI50: 46 µM
  TGI: 75 µM and > 100 µM
[58]
  GI50: 34 µM
  TGI: 75 µM and > 100 µM

Source: PubChem BioAssay (NCI)
